{"source": "patent US20130123345A1", "about": "“METHOD OF TREATING A VIRAL INFECTION D[…] […] ADENOSINE RECEPTOR PATHWAY” (THE OHIO STATE UNIVERSITY, priority 2010, published 2013)", "key": {"influenza-infected mice [1]": {"tested_on": "influenza-infected mice", "test": "Arterial O2 saturation (SpO2) by MouseOx pulse oximetry, peripheral hypoxemia", "assay_type": "in vivo, mouse", "method": "The pharmacologic blockade of CD73 with APCP (5′-(α,β-methylene)diphosphate) reduces BALF adenosine levels and thereby ameliorates acute lung injury in influenza-infected mice. We investigated effects of daily gavage with APCP (20 mg/kg, in 200 μl saline) on body weight, arterial O2 saturation (SpO2; measured in conscious mice with the MouseOx pulse oximetry system) and survival in 2 groups of 10 individually-marked influenza-infected mice, and compared these animals to mock-infected and untreated influenza-infected mice. […] (FIG. 4C). In fact, 20% of APCP-treated mice survived infection, whereas all untreated mice died. […]\nA1-AdoR activation is pro-inflammatory in influenza infection and pharmacologic blockade of A1-AdoR with the prototypical A1-AdoR antagonist DPCPX (8-Cyclopentyl-1,3-diproopylxanthine) ameliorates adenosine-induced acute lung injury in influenza-infected mice. […] The effects of this A1-AdoR antagonist on body weight, arterial O2 saturation (measured by pulse oximetry) and survival were investigated in 2 groups of 10 individually-marked influenza-infected mice. For some outcome measures, we also evaluated the effect of daily administration of the A2b-AdoR antagonist enprofylline (4 mg/kg I.P., in 100 μl 10% ethanol in saline; EMD Biosciences), to determine whether A2b-AdoR blockade also modulates influenza outcomes. […]"}, "influenza-infected mice [2]": {"tested_on": "influenza-infected mice", "test": "Influenza-induced loss of body weight in treated infected mice", "assay_type": "in vivo, mouse", "method": "(§1) The pharmacologic blockade of CD73 with APCP (5′-(α,β-methylene)diphosphate) reduces BALF adenosine levels and thereby ameliorates acute lung injury in influenza-infected mice. We investigated effects of daily gavage with APCP (20 mg/kg, in 200 μl saline) on body weight, arterial O2 saturation (SpO2; measured in conscious mice with the MouseOx pulse oximetry system) and survival in 2 groups of 10 individually-marked influenza-infected mice, and compared these animals to mock-infected and untreated influenza-infected mice. […] (FIG. 4C). In fact, 20% of APCP-treated mice survived infection, whereas all untreated mice died. Importantly, APCP gavage had no effect on lung homogenate virus titers at 2 d.p.i. (not shown).\n(§2) A1-AdoR activation is pro-inflammatory in influenza infection and pharmacologic blockade of A1-AdoR with the prototypical A1-AdoR antagonist DPCPX (8-Cyclopentyl-1,3-diproopylxanthine) ameliorates adenosine-induced acute lung injury in influenza-infected mice. Influenza-infected mice were treated with DPCPX (1 mg/kg/day), administered by implanted osmotic minipump (Alzet). The effects of this A1-AdoR antagonist on body weight, arterial O2 saturation (measured by pulse oximetry) and survival were investigated in 2 groups of 10 individually-marked influenza-infected mice. For some outcome measures, we also evaluated the effect of daily administration of the A2b-AdoR antagonist enprofylline (4 mg/kg I.P., in 100 μl 10% ethanol in saline; EMD Biosciences), to determine whether A2b-AdoR blockade also modulates influenza outcomes. […] 10% of DPCPX-treated mice survived infection. […] (not shown). […] (not shown).\n(§3) Mice were infected intranasally with 50 μl influenza A/WSN/33 under 3% isoflurane anesthesia. Mock-infected animals received 50 μl of virus diluent (PBS with 0.1% BSA). In some experiments, mice were individually marked and weighed daily."}, "influenza-infected mice [3]": {"tested_on": "influenza-infected mice", "test": "Mortality / survival of treated influenza-infected mice", "assay_type": "in vivo, mouse", "method": "as §1, §2, §3"}, "influenza A/WSN/33": {"tested_on": "influenza A/WSN/33", "test": "Lung homogenate virus titers", "assay_type": "in vivo, mouse", "method": "as §1, §2"}, "influenza-infected mice [4]": {"tested_on": "influenza-infected mice", "test": "Lung water content (wet:dry weight ratio)", "assay_type": "in vivo, mouse", "conditions": "6 d.p.i.", "method": "as §2\nThe right lung was removed weighed, dried in an oven at 55° C. for 5 days, then reweighed. Wet-to-dry weight ratio provides an index of intrapulmonary fluid accumulation."}, "influenza-infected mice [5]": {"tested_on": "influenza-infected mice", "test": "Total BAL cell counts (pulmonary inflammation)", "assay_type": "in vivo, mouse", "conditions": "6 d.p.i.; 1 mg/kg/day by osmotic minipump", "method": "as §2\nFollowing removal of the left lung, the right lung was lavaged in situ with 0.5 ml of sterile saline. […] Numbers of viable alveolar macrophages, lymphocytes, and polymorphonuclear cells were calculated from total leukocytes (counted using a hemocytometer with 0.4% trypan blue exclusion to assess viability) and differential counts of Diff-Quik-stained cytocentrifuge preparations. […] BAL protein and LDH content were determined by standard colorimetric assays."}, "[6]": {"tested_on": "BALB/c mice infected with influenza A/WSN/33", "test": "Heart rate (bradycardia) by pulse oximetry in influenza-infected mice", "assay_type": "in vivo", "conditions": "6 days infection, 10,000 PFU/mouse; systemic treatment"}, "[7]": {"tested_on": "influenza H1N1 virus (A/WSN/33) infected BALB/c mice", "test": "Alveolar fluid clearance in influenza-infected mice (compound added to fluid clearance instillate)", "assay_type": "in vivo, mouse", "conditions": "2 d.p.i., 10 μM in fluid clearance instillate, 30-min ventilation period"}, "[8]": {"conditions": "1 mg/kg/day by implanted osmotic minipump"}}, "data": [{"compound": "5′-(α,β-methylene)diphosphate [APCP]", "values": [{"measurement": "onset of peripheral hypoxemia (SpO2)", "setting": "influenza-infected mice [1]; daily gavage 20 mg/kg, conscious mice", "value": "significantly delayed"}, {"measurement": "influenza-induced loss of body weight", "setting": "influenza-infected mice [2]; daily gavage 20 mg/kg in 200 μl saline", "value": "no significant effect"}, {"measurement": "treated mice that survived infection", "setting": "influenza-infected mice [3]; daily gavage 20 mg/kg, all untreated mice died", "value": 20, "unit": "%"}, {"measurement": "mortality (delay)", "setting": "influenza-infected mice [3]; daily gavage 20 mg/kg, vs untreated infected mice", "value": "significantly delayed mortality"}, {"measurement": "lung homogenate virus titers", "setting": "influenza A/WSN/33; 2 d.p.i., daily gavage 20 mg/kg", "value": "no effect"}]}, {"compound": "CCCn1c(=O)c2[nH]c(C3CCCC3)nc2n(CCC)c1=O", "note": "[DPCPX, 8-cyclopentyl-1,3-dipropylxanthine]", "values": [{"measurement": "lung water content (wet:dry weight ratio)", "setting": "influenza-infected mice [4]; 1 mg/kg/day by osmotic minipump", "value": "significantly reduced"}, {"measurement": "onset of peripheral hypoxemia", "setting": "influenza-infected mice [1]; [8]", "value": "significantly delayed"}, {"measurement": "influenza-induced weight loss", "setting": "influenza-infected mice [2]; [8]", "value": "neither DPCPX nor enprofylline had any significant effect"}, {"measurement": "mortality (delay)", "setting": "influenza-infected mice [3]; [8]", "value": "significantly delayed mortality"}, {"measurement": "treated mice that survived infection", "setting": "influenza-infected mice [3]; [8]", "value": 10, "unit": "%"}, {"measurement": "lung homogenate virus titers", "setting": "influenza A/WSN/33; 6 d.p.i., 1 mg/kg/day by osmotic minipump", "value": "Neither DPCPX nor enprofylline had any effect"}, {"measurement": "total BAL cell counts", "setting": "influenza-infected mice [5]", "value": "significant reduction"}, {"measurement": "influenza-induced bradycardia (heart rate)", "setting": "[6]", "value": "reversed"}]}, {"compound": "N#CC(=C(N)Sc1ccccc1N)C(C#N)=C(N)Sc1ccccc1N", "note": "[U0126, 1,4-diamino-2,3-dicyano-1,4-bis[2-aminophenylthio] butadiene]", "values": [{"measurement": "WSN virus-induced suppression of alveolar fluid clearance", "setting": "[7]", "value": "reversed"}]}, {"compound": "CCCn1c(=O)[nH]c(=O)c2[nH]cnc21", "note": "[enprofylline]", "values": [{"measurement": "lung water content (wet:dry weight ratio)", "setting": "influenza-infected mice [4]; daily 4 mg/kg I.P.", "value": "no such effect"}, {"measurement": "influenza-induced weight loss", "setting": "influenza-infected mice [2]; daily 4 mg/kg I.P. in 100 μl 10% ethanol in saline", "value": "neither DPCPX nor enprofylline had any significant effect"}, {"measurement": "lung homogenate virus titers", "setting": "influenza A/WSN/33; 6 d.p.i., daily 4 mg/kg I.P.", "value": "Neither DPCPX nor enprofylline had any effect"}]}, {"compound": "CNCCC(Oc1ccc(C(F)(F)F)cc1)c1ccccc1", "note": "(stereo not drawn) [fluoxetine]", "values": [{"measurement": "WSN virus-induced suppression of alveolar fluid clearance", "setting": "[7]", "value": "reversed"}]}]}
